Measurements taken from US20210277005A1, “PROANGIOGENIC COMPOSITIONS AND METHODS OF USE” (University of North Dakota, priority 2020, published 2021).

Assays:
HUVEC cells [1] = assay: Effect of inhibitors/antagonists on the AdSucc-induced Ca2+ response; format: cell-based, human; settings: for effect on Ca2+ response upon AdSucc treatment: PLC inhibitor / IP3 antagonist
Protocol: (§1) In another example, AdSucc signaling properties were studied. To validate if AdSucc may have a signaling role, the effect of AdSucc on second messenger signaling molecules was studied. […] Our initial data was collected on a plate reader that averages multicellular responses upon AdSucc stimulation. […] To get insights into a mechanism for Ca^2+ release, cells were treated with phospholipase C (PLC) inhibitors U73122 and inositol phosphate triphosphate (IP3) antagonist 2-APB. […] In FIG. 3B, forskolin was used as a positive control (n=5). In FIG. 3C AdSucc is shown to increase cytosolic Ca^2+ in the primary rat brain microvascular endothelia 9b) and HUVEC (c) cells as determined using a plate reader, ATP was used as a positive control.

[2] = test system: mice with transient middle cerebral artery occlusion (MCAO); assay: Stroke model: 45 min transient middle cerebral artery occlusion (MCAO), intranasal treatment; format: in vivo; settings: AdSucc intranasally 2 h after reperfusion and then every 24 h, 10 μL/animal, 20 mM in PBS; tested 1-7 days post MCAO
Protocol: In an example, Stroke was induced in 3 month old mice with 45 min of transient middle cerebral artery occlusion (MCAO) using an intraluminal filament and performed in a double-blind manner. To correct for edema and necrotic tissue loss, corrected infarct volume was calculated as [(volume of the contralateral hemisphere) minus (volume of the viable tissue in ischemic hemisphere)] after triphenyl tetrazolium chloride (TTC) staining on day 7 post-reperfusion. Following MCAO, a modified neurological deficiency score was used to grade neurological function. A series of motor (muscle status, movement, and balance), sensory (visual, tactile, and proprioceptive) and reflex tests were graded (0—being normal and 18—maximal deficit score) by investigator who was blinded to the experimental groups. Mice were tested 1, 3, 5, and 7 days post MCAO surgery. Deaths were plotted and analyzed as survival probability. Mice were treated with AdSucc intranasally 2 h after reperfusion and then every 24 h (10 μL/animal over 10 min, 20 mM in PBS, pH=7.2). […] FIG. 1A is a graph showing neurological deficiency in the test subjects. In FIG. 1A, higher numbers indicate higher deficiency between saline and AdSucc treated animals at the same test day. […] FIG. 1C is a graph showing representative blood flow rate during MCAO surgery as recorded with a laser Doppler sensor.

[3] = Brain AdSucc concentration after intranasal AdSucc treatment; format: in vivo, mice; settings: 10 μL/animal over 10 min, 20 mM in PBS, pH=7.2
HUVEC cells [4] = assay: cAMP levels in endothelial cells; format: cell-based, human; settings: forskolin positive control
Protocol: as §1

HUVEC cells [5] = assay: Intracellular Ca2+ levels in HUVEC cells (plate reader, single cell imaging); format: cell-based, human
Protocol: as §1

[6] = test system: primary rat microvascular endothelial cells; assay: Intracellular Ca2+ levels in primary rat brain microvascular endothelial cells (plate reader); format: cell-based; settings: ATP positive control
Protocol: as §1

HUVEC cells [7] = assay: In vitro sprouting assay on collagen matrix; format: cell-based, human; settings: 24 h, normoxia; for invasion and sprouting of HUVEC cells: 0.5 mM in collagen matrix, n=4
Protocol: In another example AdSucc's role in angiogenesis was studied. Two different models were used to collect preliminary data in support of AdSucc angiogenic properties. First, an in vitro sprouting assay—a critical step in angiogenesis—was used. HUVEC cells were plated on collagen matrix containing AdSucc, SuccAd, VEGF, or vesicle control for 24 h. For quantification of invaded and sprouted structures, z-stacked images were taking using transmitted light illumination in identical fields following glutaraldehyde fixation and toluidine blue staining. […] The concentrations used (0.5 mM) were in the range found in the brain under low energy conditions.

nude mice [8] = assay: In vivo matrigel plaque angiogenesis assay (hemoglobin readout); settings: AdSucc 0.5 mM in matrigel, s.c. in nude mice, 10 days, n=4
Source text: (§2) The pro-angiogenic AdSucc effect in vivo using a matrigel plaque loaded with AdSucc (using hemoglobin readout) or DIVA assay kit also loaded with AdSucc (using endothelial cell quantification with FITC labeled lectin) was also studied (FIG. 4B). In both assays, matrigel was implanted into nude mice (s.c.) for 10 days. […] In addition, in the matrigel assay, the concentration of AdSucc degradation products, SuccAd, was 1000-fold lower than AdSucc, and adenosine was undetectable in the matrigel (FIG. 4C).

nude mice [9] = assay: In vivo DIVA assay kit (endothelial cell quantification with FITC labeled lectin); settings: AdSucc 0.5 mM loaded, s.c. in nude mice, 10 days, n=4
Source text: as §2

[10] = Matrigel analysis for products of AdSucc degradation upon incubation in vivo; design: species or system mice; settings: AdSucc loaded matrigel after in vivo incubation, n=3
Source text: as §2

In the case of `Cc1nc(N=Nc2ccc(S(=O)(=O)O)cc2S(=O)(=O)O)c(COP(=O)(O)O)c(C=O)c1O` [PPADS], the “effect on AdSucc-induced Ca2+ response” value (HUVEC cells [1]; non-selective P2 purinergic antagonist, HUVEC cells, n=5) is reported as “significantly attenuated”.
With `O=C(O)C[C@H](Nc1ncnc2c1ncn2[C@@H]1O[C@H](COP(=O)(O)O)[C@@H](O)[C@H]1O)C(=O)O` [AdSucc, (2S)-2-({9-[(2R,3R,4S,5R)-3,4-dihydroxy-5-[(phosphonooxy)methyl]oxolan-2-yl]-9H-purin-6-yl}amino)butanedioic acid] the “outcome after stroke injury (neurological deficiency score, survival, corrected infarct volume)” value [2] was “significant improvement”, the “brain AdSucc concentrations” value [3] was “significantly increased” and the “effect on cAMP levels” value (HUVEC cells [4]) was “no effect”. For the same compound, the “Ca2+ increase by single cell Ca2+ imaging” value (HUVEC cells [5]; 2 micromolar Fura, 0 and 100 sec after AdSucc 0.3 mM in PBS) was “independently confirmed”, the “effect on intracellular Ca2+ levels” value (HUVEC cells [5]; plate reader, AdSucc at the concentration found in the ischemic brain, comparable to ATP treatment) was “very profound effect” and the “effect on intracellular Ca2+ levels” value [6] was “very profound effect”. The “invasion and sprouting of HUVEC cells” value (HUVEC cells [7]) was “significantly potentiated”, the “invasion and sprouting effect compared to VEGF” value (HUVEC cells [7]; 0.5 mM) was “higher effect compared to VEGF” and the “angiogenesis in loaded matrigel (hemoglobin)” value (nude mice [8]) was “significantly increased”. The “angiogenesis in DIVA assay (FITC lectin labeled endothelial cells)” value (nude mice [9]) was “significantly increased”.
With `Cc1c(C(=O)Nc2cccc(C(F)(F)F)c2)cc(-c2ccccc2)n1CCCN1CCOCC1` [HC 067047] the “effect on AdSucc-induced Ca2+ signaling” value (HUVEC cells [1]; TROV4 antagonist at 0.5 μM) was “did not affect”.
In the case of `NCCOB(c1ccccc1)c1ccccc1` [2-APB], the “effect on Ca2+ response upon AdSucc treatment” value (HUVEC cells [1]; HUVEC cells, n=5) is reported as “significantly attenuated”.
For `COc1ccc2c(c1)CC[C@@H]1[C@@H]2CC[C@]2(C)[C@@H](NCCCCCCN3C(=O)C=CC3=O)CC[C@@H]12` [U73122], the “effect on Ca2+ response upon AdSucc treatment” value (HUVEC cells [1]; HUVEC cells, n=5) was “significantly attenuated”.
In the case of `O=C(O)C[C@H](Nc1ncnc2c1ncn2[C@@H]1O[C@H](CO)[C@@H](O)[C@H]1O)C(=O)O` [SuccAd, N-(9-β-D-ribofuranosyl-9H-purin-6-yl)-L-aspartic acid], the “invasion and sprouting of HUVEC cells” value (HUVEC cells [7]) is reported as “did not have an effect” and the “concentration of the AdSucc degradation product in the matrigel, relative to AdSucc” value ([10]; lower than AdSucc) is reported as 1000 fold.
For `Cc1cc(N2CCCCC2)nc2ccccc12` [ML 204], the “effect on AdSucc-induced Ca2+ signaling” value (HUVEC cells [1]; TRPC 4/5 antagonist at 25 μM) was “did not affect”.
With `Nc1ncnc2c1ncn2[C@@H]1O[C@H](CO)[C@@H](O)[C@H]1O` [adenosine] the “degradation product level in the matrigel” value [10] was “undetectable”.
